Source: ChEMBL document CHEMBL1201862, “PubChem BioAssay data set” (2004)
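48-hour exposure; five concentrations; linearly interpolated endpoints. GI50: concentration for 50% inhibition of growth.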 The source made the active and inactive calls. Cut-off read from the data, not from the text of the source: active = GI50 up to about 1.1 µM and inactive = higher.

Key:
Assay in all cases: growth of human tumour cells (NCI), 48 h
K562 = tested on: K562
SF-295 = tested on: SF-295
Malme-3M = tested on: Malme-3M
MDA-MB-435 = tested on: MDA-MB-435
HOP-62 = tested on: HOP-62
SNB-19 = tested on: SNB-19
HL-60 = tested on: HL-60
SK-OV-3 = tested on: SK-OV-3
MDA-N = tested on: MDA-N
T47D = tested on: T47D
RXF 393 = tested on: RXF 393
COLO 205 = tested on: COLO 205
NCI-H23 = tested on: NCI-H23
HCT-15 = tested on: HCT-15
EKVX = tested on: EKVX
NCI-H460 = tested on: NCI-H460
DU-145 = tested on: DU-145
SF-268 = tested on: SF-268
RPMI-8226 = tested on: RPMI-8226
SR = tested on: SR

Structure (SMILES) | GI50 (K562) | GI50 (SF-295) | GI50 (Malme-3M) | GI50 (MDA-MB-435) | GI50 (HOP-62) | GI50 (SNB-19) | GI50 (HL-60) | GI50 (SK-OV-3) | GI50 (MDA-N) | GI50 (T47D) | GI50 (RXF 393) | GI50 (COLO 205) | GI50 (NCI-H23) | GI50 (HCT-15) | GI50 (EKVX) | GI50 (NCI-H460) | GI50 (DU-145) | GI50 (SF-268) | GI50 (RPMI-8226) | GI50 (SR)
CC1CCc2c(c(CC3CC(=O)NC(=O)C3)nn2-c2ccccc2)C1 (stereo not drawn) | > 100 µM (inactive) | > 100 µM (inactive) | > 100 µM (inactive) | > 100 µM (inactive) | > 100 µM (inactive) | > 100 µM (inactive) | > 100 µM (inactive) | > 100 µM (inactive) | > 100 µM (inactive) | > 100 µM (inactive) | > 100 µM (inactive) | > 100 µM (inactive) | > 100 µM (inactive) | > 100 µM | > 100 µM (inactive) | 99.1 µM (inactive) | > 100 µM (inactive) | > 100 µM (inactive) | 80.5 µM (inactive) | > 100 µM (inactive)
Cc1c(-c2ccccc2)cc(O)c2nc3ccccc3n12 | 5.82 µM (inactive) | 49.8 µM (inactive) | > 100 µM (inactive) | 13.7 µM (inactive) | 21.1 µM (inactive) | 96.8 µM (inactive) | 4.97 µM (inactive) | – | 46.8 µM (inactive) | > 100 µM (inactive) | 83.6 µM (inactive) | > 100 µM (inactive) | > 100 µM (inactive) | 6.32 µM | > 100 µM (inactive) | 6.31 µM (inactive) | > 100 µM (inactive) | > 10 µM (inactive) | 7.43 µM (inactive) | 7.06 µM (inactive)
O=c1[nH]nc(-c2ccccc2)n1-c1ccncc1 | > 100 µM (inactive) | > 100 µM (inactive) | > 100 µM (inactive) | > 100 µM (inactive) | > 100 µM (inactive) | > 100 µM (inactive) | > 100 µM (inactive) | – | > 100 µM (inactive) | > 100 µM (inactive) | > 100 µM (inactive) | > 100 µM (inactive) | > 100 µM (inactive) | > 100 µM | > 100 µM (inactive) | > 100 µM (inactive) | > 100 µM (inactive) | > 100 µM (inactive) | > 100 µM (inactive) | > 100 µM (inactive)
C=CC(c1ccccc1)[C@@]1(OC(C)=O)C(=O)C(=O)OC1C1COC(C)(C)O1 (stereo partly drawn) | 3.94 µM (inactive) | 16.7 µM (inactive) | 15.2 µM (inactive) | 13.9 µM (inactive) | 17.3 µM (inactive) | 19.5 µM (inactive) | 2.11 µM (inactive) | 18.1 µM (inactive) | 10.4 µM (inactive) | 13.2 µM (inactive) | 4.68 µM (inactive) | 8.26 µM (inactive) | 18.2 µM (inactive) | 9.62 µM | 17.9 µM (inactive) | 14.5 µM (inactive) | 21.2 µM (inactive) | 24.2 µM (inactive) | 5.79 µM (inactive) | 2.43 µM (inactive)
OC(c1nc2ccccc2[nH]1)C(O)C(O)C(O)c1nc2ccccc2[nH]1 (stereo not drawn) | > 100 µM (inactive) | > 100 µM (inactive) | > 100 µM (inactive) | > 100 µM (inactive) | > 100 µM (inactive) | > 100 µM (inactive) | > 100 µM (inactive) | > 100 µM (inactive) | > 100 µM (inactive) | > 100 µM (inactive) | > 100 µM (inactive) | > 100 µM (inactive) | – | > 100 µM | > 100 µM (inactive) | > 100 µM (inactive) | > 100 µM (inactive) | > 100 µM (inactive) | > 100 µM (inactive) | > 100 µM (inactive)
Cc1ccc(S(N)(C(=O)Nc2cccc3ccccc23)[N+](=O)[O-])cc1 (stereo not drawn) | 55 µM (inactive) | 89.7 µM (inactive) | > 100 µM (inactive) | > 100 µM (inactive) | > 100 µM (inactive) | 92.5 µM (inactive) | 39.3 µM (inactive) | > 100 µM (inactive) | > 100 µM (inactive) | 46.2 µM (inactive) | > 100 µM (inactive) | > 100 µM (inactive) | > 100 µM (inactive) | > 100 µM | – | > 100 µM (inactive) | 68.2 µM (inactive) | – | 48.6 µM (inactive) | 58.9 µM (inactive)
Nc1ccc2[nH]c(C(=O)N3CC(CCl)c4c3cc(N)c3ccccc43)cc2c1 (stereo not drawn) | < 0.01 µM (active) | < 0.01 µM (active) | – | 0.011 µM (active) | < 0.01 µM (active) | < 0.0138 µM (active) | < 0.01 µM (active) | 0.0175 µM (active) | < 0.01 µM (active) | 0.0119 µM (active) | < 0.01 µM (active) | 0.0101 µM (active) | < 0.01 µM (active) | < 0.01 µM | < 0.01 µM (active) | < 0.01 µM (active) | < 0.01 µM (active) | < 0.01 µM (active) | < 0.0108 µM (active) | < 0.01 µM (active)
NP(=O)(Oc1c2occc2cc2ccc(=O)oc12)N(CCCl)CCCl (stereo not drawn) | > 100 µM (inactive) | > 100 µM (inactive) | > 100 µM (inactive) | > 100 µM (inactive) | > 100 µM (inactive) | > 100 µM (inactive) | 70.1 µM (inactive) | – | > 100 µM (inactive) | 48.5 µM (inactive) | 0.0611 µM (active) | > 100 µM (inactive) | > 100 µM (inactive) | > 100 µM | > 100 µM (inactive) | 68.1 µM (inactive) | > 100 µM (inactive) | 58.2 µM (inactive) | 89.7 µM (inactive) | 38.5 µM (inactive)
